Read-outs that look alike come from different tables or passages of the source.
Key:
[1] = test system: greenhouse red spider mite (Tetranychus urticae); assay: Tetranychus urticae spray test, OP-resistant (TETRUR), bean leaf disks; assay type: in vivo; conditions: Tetranychus urticae, foliar, 144 h, read-out: efficacy (spider mites killed)
Experimental: After 6 days, the effect in % is determined.

[2] = test system: larvae of the mustard beetle (Phaedon cochleariae); assay: Phaedon cochleariae spray test (PHAECO); conditions: Phaedon cochleariae, 168 h, read-out: effect (beetle larvae killed)
[3] = logP by HPLC on reversed-phase columns (C 18), EEC Directive 79/831 Annex V.A8; assay type: physicochemical
Experimental: Calibration is carried out using unbranched alkan-2-ones (having from 3 to 16 carbon atoms) with known log P values (the log P values are determined by the retention times using linear interpolation between two successive alkanones).

[4] = application rate 500 g/ha, after 6 days
[5] = reversed-phase C18 HPLC column, pH 2.7, [a] LC-MS, acidic range, pH 2.7, 0.1% aqueous formic acid/acetonitrile, read-out: logP(HCOOH)
[6] = reversed-phase C18 HPLC column, pH 7.8, [b] LC-MS, neutral range, pH 7.8, 0.001 molar aqueous ammonium bicarbonate/acetonitrile, read-out: logP(neutral)

| Structure (SMILES) | pest or weed control at 500 g/ha [1, 4] | pest or weed control at 500 g/ha [2] | chromatographic logP [3, 5] | chromatographic logP [3, 6] | pest or weed control at 500 g/ha [1] | chromatographic logP ([3]; [a] LC-MS, acidic range, pH 2.7, 0.1% aqueous formic acid/acetonitrile, read-out: logP(HCOOH)) |
| --- | --- | --- | --- | --- | --- | --- |
| N/C(=N/c1cc(SCC(F)(F)F)c(Br)cc1Br)C(F)(F)F [Ia-28] | 100% | 100% |  |  |  |  |
| Cc1cc(F)c(/N=C(\N)C2(Cl)CC2F)cc1SCC(F)(F)F (stereo not shown) [Ia-29] | 100% | 100% |  |  |  |  |
| Cc1cc(F)c(/N=C(\N)C2CC2F)cc1SCC(F)(F)F (stereo not shown) [Ia-33] | 100% | 83% |  |  |  |  |
| CN(C)/C(=N/c1cc(SCC(F)(F)F)c(Cl)cc1F)C(F)(F)F [Ia-35] | 100% | 100% |  |  |  |  |
| Cc1cc(Cl)c(/N=C(\N)C2(Cl)CC2)cc1SCC(F)(F)F [Ia-36] | 100% | 100% |  |  |  |  |
| Cc1cc(Cl)c(/N=C(\N)C(F)(F)C(F)(F)F)cc1SCC(F)(F)F [Ia-38] | 100% | 100% |  |  |  |  |
| Cc1cc(F)c(/N=C2\CCCN2c2ccccc2)cc1SCC(F)(F)F [Ia-78, 2-Fluoro-4-methyl-N-[(2E)-1-phenylpyrrolidin-2-ylidene]-5-[(2,2,2-trifluoroethyl)sulfanyl]aniline] | 100% | 100% |  |  |  |  |
| Cc1cc(F)c(/N=C(\N)[C@H]2CC2(C)C)cc1SCC(F)(F)F [Ia-79] | 100% | 100% |  |  |  |  |
| Cc1cc(F)c(/N=C(/NCc2ccc(C(F)(F)F)cc2)C(F)(F)F)cc1SCC(F)(F)F [Ia-89] | 100% |  | 5.15 | 5.15 |  |  |
| Cc1cc(F)c(/N=C(\N)C2CC2)cc1SCC(F)(F)F [Ia-92] | 90% | 83% |  |  |  |  |
| Cc1cc(F)c(/N=C(/Nc2ccccc2)C(F)(F)F)cc1SCC(F)(F)F [Ia-96] | 100% |  | 4.37 | 4.37 |  |  |
| Cc1cc(F)c(/N=C(\N)c2cnccn2)cc1SCC(F)(F)F [Ia-117, N′-{2-Fluoro-4-methyl-5-[(2,2,2-trifluoroethyl)sulfanyl]phenyl}pyrazine-2-carboximidamide] | 90% |  | 1.24 |  |  |  |
| N/C(=N/c1cc(SCC(F)(F)F)c(Br)cc1Cl)C(F)(F)F [Ia-121] | 100% | 100% |  |  |  |  |
| COc1ccc(N/C(=N/c2cc(SCC(F)(F)F)c(C)cc2F)C(F)(F)F)cc1 [Ia-129] | 100% |  | 4.2 | 4.2 |  |  |
| N/C(=N\c1cc(SCC(F)(F)F)c(Cl)cc1Cl)c1ccncn1 [Ia-130] | 100% | 83% |  |  |  |  |
| N/C(=N\c1cc(SCC(F)(F)F)c(Cl)cc1Cl)c1ccccn1 [Ia-134] | 100% | 83% |  |  |  |  |
| N/C(=N\c1cc(SCC(F)(F)F)c(Cl)cc1Cl)c1ccc(Cl)nc1 [Ia-135] | 100% | 100% |  |  |  |  |
| N/C(=N\c1cc(SCC(F)(F)F)c(Cl)cc1Cl)C1CC1 [Ia-139] | 100% | 100% |  |  |  |  |

| Structure (SMILES) | pest or weed control at 500 g/ha [1, 4] | pest or weed control at 500 g/ha [2] | chromatographic logP [3, 5] | chromatographic logP [3, 6] | pest or weed control at 500 g/ha [1] | chromatographic logP ([3]; [a] LC-MS, acidic range, pH 2.7, 0.1% aqueous formic acid/acetonitrile, read-out: logP(HCOOH)) |
| --- | --- | --- | --- | --- | --- | --- |
| Cc1cc(F)c(/N=C(\NCC(F)(F)F)C2CC2)cc1SCC(F)(F)F [Ia-145, N′-{2-fluoro-4-methyl-5-[(2,2,2-trifluoroethyl)sulfanyl]phenyl}-N-(2,2,2-trifluoroethyl)cyclopropanecarboximidamide] | 100% |  | 1.99 | 4.12 |  |  |
| CN/C(=N/c1cc(SCC(F)(F)F)c(C)cc1F)c1ccc(OC)cc1 [Ia-165] | 100% |  | 1.68 | 3.49 |  |  |
| Cc1cc(F)c(/N=C(\c2ccco2)N(C)C)cc1SCC(F)(F)F [Ia-166, N′-{2-Fluoro-4-methyl-5-[(2,2,2-trifluoroethyl)sulfanyl]phenyl}-N,N-dimethylfuran-2-carboximidamide] | 100% |  | 1.57 | 3.94 |  |  |
| Cc1cc(F)c(/N=C(/NCc2ccccc2)C(F)(F)F)cc1SCC(F)(F)F [Ia-171] | 90% | 83% |  |  |  |  |
| Cc1cc(F)c(/N=C2\SCC(=O)N2CC(F)(F)F)cc1SCC(F)(F)F [Ia-175, 2-({2-Fluoro-4-methyl-5-[(2,2,2-trifluoroethyl)sulfanyl]phenyl}imino)-3-(2,2,2-trifluoroethyl)-1,3-thiazolidin-4-one] | 90% |  | 4.09 | 3.99 |  |  |
| Cc1cc(F)c(/N=C2\CCCN2c2ccc(C(F)(F)F)cc2)cc1SCC(F)(F)F [Ia-191] | 100% | 100% |  |  |  |  |
| CN(C)/C(CC(F)(F)F)=N\c1cc(SCC(F)(F)F)c(Cl)cc1Cl [Ia-202] | 100% | 100% |  |  |  |  |
| CN(C)/C(=N\c1cc(SCC(F)(F)F)c(Cl)cc1Cl)c1ccccc1Cl [Ia-207] | 100% | 83% |  |  |  |  |
| N/C(=N\c1cc(SCC(F)(F)F)c(Cl)cc1Cl)C1CCC1 [Ia-209] | 100% | 100% |  |  |  |  |
| N/C(=N\c1cc(SCC(F)(F)F)c(Cl)cc1Cl)C(Cl)(Cl)Cl [Ia-210] |  | 83% |  |  | 100% |  |
| CN/C(=N/c1cc(SCC(F)(F)F)c(C)cc1F)c1ccc(C(F)(F)F)cc1 [Ia-250, N′-{2-Fluoro-4-methyl-5-[(2,2,2-trifluoroethyl)sulfanyl]phenyl}-N-methyl-4-(trifluoromethyl)benzenecarboximidamide] | 90% |  | 1.96 | 4.08 |  |  |
| Cc1cc(F)c(/N=C(\NCC2CCC(C(F)(F)F)CC2)C2CC2)cc1SCC(F)(F)F (stereo not shown) [Ia-251] | 90% |  | 2.23 |  |  |  |
| Cc1cc(F)c(/N=C2/NCCCS2)cc1SCC(F)(F)F [Ia-278, 2-fluoro-4-methyl-N-[1,3-thiazinan-2-ylidene]-5-[(2,2,2-trifluoroethyl)sulfanyl]anilinium chloride] |  |  |  |  | 90% | 1.34 |
| CN/C(=N/c1cc([S+]([O-])CC(F)(F)F)c(Cl)cc1Cl)C(F)(F)F (stereo not shown) [Ib-21] | 100% |  | 3.32 | 3.32 |  |  |
| Cc1cc(F)c(/N=C(/Nc2ccccc2)C(F)(F)F)cc1[S+]([O-])CC(F)(F)F (stereo not shown) [Ib-49] | 100% |  | 3.22 | 3.12 |  |  |
| Cc1cc(F)c(/N=C(\N)c2cnccn2)cc1[S+]([O-])CC(F)(F)F (stereo not shown) [Ib-62, N′-{2-Fluoro-4-methyl-5-[(2,2,2-trifluoroethyl)sulfinyl]phenyl}pyrazine-2-carboximidamide] | 100% |  | 0.84 | 1.77 |  |  |
| Cc1cc(F)c(/N=C2\SCC(=O)N2CC(F)(F)F)cc1[S+]([O-])CC(F)(F)F (stereo not shown) [Ib-71, 2-({2-Fluoro-4-methyl-5-[(2,2,2-trifluoroethyl)sulfinyl]phenyl}imino)-3-(2,2,2-trifluoroethyl)-1,3-thiazolidin-4-one] | 100% |  | 2.93 | 2.87 |  |  |
| COc1ccc(N/C(=N/c2cc([S+]([O-])CC(F)(F)F)c(C)cc2F)C(F)(F)F)cc1 (stereo not shown) [Ib-86] | 100% |  | 3.04 | 3.05 |  |  |

— patent US10051861B2, “N-arylamidine-substituted trifluoroethyl sulfide derivatives as acaricides and insecticides” (BAYER CROPSCIENCE AG, priority 2011, dated 2018)
